The target of one series is LCMV MG (Lymphocytic choriomeningitis virus, UniProt P09992+P14240). It is filed as cell-based.
Series [1] concerns LCMV/vRNP cells (HEK293T).
For another series, the system named is rLCMV/GFP. The series is described as follows: microbe, parasite or virus in culture. It is filed as cell-based.
The next series in a line: in vitro. To be noted: human, CC50 (μM) AlamarBlue assay.

Counter-ions that a name gives are not always drawn.

Sequence of LCMV MG (P09992 whole entry, looked up): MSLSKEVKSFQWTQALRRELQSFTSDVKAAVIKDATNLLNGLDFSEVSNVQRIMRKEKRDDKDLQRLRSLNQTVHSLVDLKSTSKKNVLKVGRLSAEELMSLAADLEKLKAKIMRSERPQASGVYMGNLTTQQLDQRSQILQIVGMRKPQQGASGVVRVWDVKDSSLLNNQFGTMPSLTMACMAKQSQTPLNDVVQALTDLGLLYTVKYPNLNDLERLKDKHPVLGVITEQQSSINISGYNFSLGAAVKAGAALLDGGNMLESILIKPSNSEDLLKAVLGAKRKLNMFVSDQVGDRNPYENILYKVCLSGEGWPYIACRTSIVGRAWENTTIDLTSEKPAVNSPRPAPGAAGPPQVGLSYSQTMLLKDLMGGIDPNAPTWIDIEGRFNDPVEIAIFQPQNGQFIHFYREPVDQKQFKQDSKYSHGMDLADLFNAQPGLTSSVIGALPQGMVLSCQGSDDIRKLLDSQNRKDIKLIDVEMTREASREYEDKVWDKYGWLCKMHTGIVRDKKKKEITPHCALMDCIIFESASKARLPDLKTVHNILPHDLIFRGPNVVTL
Sequence of LCMV MG (P14240 whole entry, looked up): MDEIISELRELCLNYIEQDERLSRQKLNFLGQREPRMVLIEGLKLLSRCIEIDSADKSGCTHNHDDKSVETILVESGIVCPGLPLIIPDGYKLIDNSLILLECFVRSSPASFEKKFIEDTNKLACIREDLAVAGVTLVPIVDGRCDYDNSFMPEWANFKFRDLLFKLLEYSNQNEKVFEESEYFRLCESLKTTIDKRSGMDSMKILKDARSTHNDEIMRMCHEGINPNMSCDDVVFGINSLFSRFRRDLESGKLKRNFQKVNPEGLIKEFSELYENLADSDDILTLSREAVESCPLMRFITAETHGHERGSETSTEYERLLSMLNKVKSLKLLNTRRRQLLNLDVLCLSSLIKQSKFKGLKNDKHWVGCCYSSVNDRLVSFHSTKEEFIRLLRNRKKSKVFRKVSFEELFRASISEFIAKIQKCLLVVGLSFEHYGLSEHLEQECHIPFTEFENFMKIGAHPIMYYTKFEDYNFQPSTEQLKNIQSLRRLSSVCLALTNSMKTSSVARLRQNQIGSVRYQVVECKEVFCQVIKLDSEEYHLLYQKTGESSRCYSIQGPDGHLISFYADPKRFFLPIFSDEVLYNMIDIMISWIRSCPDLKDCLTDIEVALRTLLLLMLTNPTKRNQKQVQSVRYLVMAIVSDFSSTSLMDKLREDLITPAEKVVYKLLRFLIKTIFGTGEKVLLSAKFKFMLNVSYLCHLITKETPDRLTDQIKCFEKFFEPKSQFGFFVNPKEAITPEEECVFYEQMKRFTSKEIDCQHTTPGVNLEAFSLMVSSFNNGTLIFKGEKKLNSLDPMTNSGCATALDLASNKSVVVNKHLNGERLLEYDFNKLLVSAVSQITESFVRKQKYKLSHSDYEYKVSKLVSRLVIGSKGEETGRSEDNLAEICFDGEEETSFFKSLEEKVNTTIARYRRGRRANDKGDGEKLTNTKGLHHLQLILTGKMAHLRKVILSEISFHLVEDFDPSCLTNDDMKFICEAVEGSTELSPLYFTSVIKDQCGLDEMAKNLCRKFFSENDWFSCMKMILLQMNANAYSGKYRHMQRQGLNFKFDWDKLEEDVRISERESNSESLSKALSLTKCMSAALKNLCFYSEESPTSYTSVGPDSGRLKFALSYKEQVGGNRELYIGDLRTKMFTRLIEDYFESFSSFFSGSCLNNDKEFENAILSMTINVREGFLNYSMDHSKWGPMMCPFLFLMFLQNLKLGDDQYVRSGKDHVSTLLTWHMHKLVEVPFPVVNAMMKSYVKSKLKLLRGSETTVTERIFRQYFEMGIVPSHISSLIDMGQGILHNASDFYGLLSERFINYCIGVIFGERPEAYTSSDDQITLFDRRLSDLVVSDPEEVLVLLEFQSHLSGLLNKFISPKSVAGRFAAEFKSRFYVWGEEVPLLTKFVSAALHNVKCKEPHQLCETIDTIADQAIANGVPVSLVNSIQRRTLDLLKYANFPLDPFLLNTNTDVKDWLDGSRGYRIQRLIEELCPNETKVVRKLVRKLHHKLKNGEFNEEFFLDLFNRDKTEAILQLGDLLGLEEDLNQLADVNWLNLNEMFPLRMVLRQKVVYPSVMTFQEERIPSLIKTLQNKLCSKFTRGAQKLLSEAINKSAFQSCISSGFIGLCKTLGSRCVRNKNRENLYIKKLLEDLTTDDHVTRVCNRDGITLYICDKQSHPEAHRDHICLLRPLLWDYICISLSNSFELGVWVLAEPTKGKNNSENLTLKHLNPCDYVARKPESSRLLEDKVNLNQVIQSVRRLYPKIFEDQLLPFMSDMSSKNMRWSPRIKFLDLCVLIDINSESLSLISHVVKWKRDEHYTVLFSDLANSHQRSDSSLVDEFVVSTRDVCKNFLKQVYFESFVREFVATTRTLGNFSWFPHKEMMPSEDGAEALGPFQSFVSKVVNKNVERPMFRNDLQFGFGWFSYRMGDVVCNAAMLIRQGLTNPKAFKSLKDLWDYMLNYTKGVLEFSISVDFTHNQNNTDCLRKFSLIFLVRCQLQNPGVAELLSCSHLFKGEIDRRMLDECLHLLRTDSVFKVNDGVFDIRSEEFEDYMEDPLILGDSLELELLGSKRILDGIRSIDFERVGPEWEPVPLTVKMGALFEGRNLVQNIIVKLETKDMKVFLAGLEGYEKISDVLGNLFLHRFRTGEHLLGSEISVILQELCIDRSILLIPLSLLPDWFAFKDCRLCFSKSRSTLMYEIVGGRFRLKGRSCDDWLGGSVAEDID

On to `O=c1[nH]c2ccccc2n1C1CCN(CCCC(c2ccc(F)cc2)c2ccc(F)cc2)CC1` [Pimozide], for which the “effect on LCMV MG activity (GFP expression)” value (shortened to “effect on LCMV MG activity”) at LCMV MG is recorded as “dose-dependent inhibitory effect”.

For `CC[C@@]1([C@H]2O[C@H]([C@H]3O[C@@](O)(CO)[C@H](C)C[C@@H]3C)C[C@H]2C)CC[C@H]([C@@]2(C)CC[C@]3(C[C@H](O)[C@@H](C)[C@@H]([C@H](C)[C@H](OC)[C@@H](C)C(=O)O)O3)O2)O1` [Monensin sodium salt], the CC50 in series [1] was found to be 5.95 µM.

The compound `CO/C=C(/C(=O)OC)c1ccccc1Oc1cc(Oc2ccccc2C#N)ncn1` [Azoxystrobin] registered a CC50 in series [1] of 62.7 µM.

By EC50 is commonly meant the midpoint of the concentration-response curve. The low end stands for higher potency in that assay, the high end for lower potency in that assay. `C=C(C)[C@H]1Cc2c(ccc3c2O[C@@H]2COc4cc(OC)c(OC)cc4[C@@H]2C3=O)O1` [Rotenone] had an EC50 in the series on rLCMV/GFP (Mammarenavirus choriomeningitidis, A549, 48 h) of 0.66 µM.

Consider PF429242, for which, in the series with rLCMV/GFP, the “effect on multiplication of live LCMV (rLCMV/GFP)” value is “inhibited”.

Turning to `O=C1c2ccccc2-n2c1nc1ccccc1c2=O` [Tryptanthrin], in the series “in vitro”, the CC50 is 12.2 µM.

Consider `S=C(NCc1ccc2c(c1)OCO2)N1CCN(c2ncnc3c2oc2ccccc23)CC1` [Amuvatinib], for which the CC50 in “in vitro” turned out to be 28 µM.

For `CC(C)[C@@H]1NC(=O)[C@H](C)OC(=O)[C@@H](C(C)C)NC(=O)[C@@H](C(C)C)OC(=O)[C@H](C(C)C)NC(=O)[C@H](C)OC(=O)[C@@H](C(C)C)NC(=O)[C@@H](C(C)C)OC(=O)[C@H](C(C)C)NC(=O)[C@H](C)OC(=O)[C@@H](C(C)C)NC(=O)[C@@H](C(C)C)OC1=O` [Valinomycin], the CC50 in the series “in vitro” was 1.93 µM.

In the case of `COc1ccc(C(O)C(C)Oc2ccc(C3OC(c4ccc(OC(C)C(O)c5ccc(OC)c(OC)c5)c(OC)c4)C(C)C3C)cc2OC)cc1OC` (stereo not shown) [Manassantin A], the “effect on LCMV MG activity” value at LCMV MG was “dose-dependent inhibitory effect”. Further, the CC50 in the series “in vitro” amounted to 24.3 µM.

Consider `CCCCCC[C@H]1C(=O)O[C@H](C)[C@H](NC(=O)c2cccc(NC=O)c2O)C(=O)O[C@@H](C)[C@@H]1OC(=O)CC(C)C` [Antimycin A], for which the “effect on LCMV MG activity” value at LCMV MG is given as “dose-dependent inhibitory effect”.

With `CC[C@@H](C(=O)O)[C@@H]1O[C@@H]([C@@H](C)[C@H](O)[C@H](C)C(=O)[C@H](CC)[C@H]2O[C@]3(C=C[C@@H](O)[C@]4(CC[C@@](C)([C@H]5CC[C@](O)(CC)[C@H](C)O5)O4)O3)[C@H](C)C[C@@H]2C)[C@@H](C)C[C@@H]1C` [Narasin], the “effect on LCMV MG activity” value on LCMV MG was “dose-dependent inhibitory effect”. The compound also yielded a CC50 in the series “in vitro” of 4.44 µM.

(Values after paper PMC6954049 (Antiviral Research, 2019).)
